Patent publication US7989478B2, “Cinnamoyl compound and use of the same” (Sumitomo Chemical Company, Limited, priority 2003, dated 2011)

Legend:
[1] = tested on: ability of TGF-β to promote transcription of a Type I collagen gene; test: Inhibition of the ability of TGF-β to promote transcription of a Type I collagen gene (COL-Luc reporter gene assay); type: cell-based; conditions: final concentration 1 μM; TGF-β added; normal human fetal skin fibroblast transfected with COL-Luc; 40 hours; read-out: Inhibition percentage
Experimental: 1×10^8 cells of a normal human fetal skin fibroblast (Clontech, catalogue No. CC-2509) were cultured at 37° C. overnight under 5% CO2 atmosphere. After the cultured cells were washed with a sodium phosphate buffer (hereinafter, referred to as PBS) twice, 3 ml of PBS was added thereto and the cells were scraped away the wall of a vessel using a cell scraper (Nalgen, catalogue No. 179693). The scraped cells were collected by centrifugation (1,500 rpm, 4° C., 15 min), and these were suspended in 20 ml of PBS and centrifuged again. To the resulting precipitates were added 11 ml of Solution 2 and 4.8 μl of pronase of DNA Extraction Kit (Stratagene, catalogue No. 200600). After shaken at 60° C. for 1 hour, the resulting mixture was allowed to stand in ice for 10 minutes. Then, 4 ml of Solution 3 of the kit was added to the mixture. After mixed, the mixture was allowed to stand in ice for 5 minutes and then centrifuged (3,000 rpm, 4° C., 15 min) to recover a supernatant. To the recovered supernatant was added 2 μl of RNase per 1 ml of the supernatant and the mixture was allowed to stand at 37° C. for 15 minutes. To the mixture was added 2-fold volume of ethanol. After mixed, a white thread-like substance (genomic DNA) appeared and the substance was recovered. The recovered genomic DNA was washed with 70% ethanol and then air-dried. The air-dried genomic DNA was dissolved in 500 μl of 10 mM Tris-HCl, 1 mM EDTA (pH 8.0) (hereinafter, referred to as TE).
The resulting genomic DNA solution (the amount equivalent to 1 μg of genomic DNA), each 1 μl (10 pmol/μl) of an oligonucleotide consisting of the nucleotide sequence represented by SEQ ID No:1 and an oligonucleotide consisting of the nucleotide sequence represented by SEQ ID No:2, 29 μL of distilled water, 5 μl of the buffer attached to TaKaRa LA Taq (TAKARA SHUZO, catalogue No. RR002A), 5 μL of a Mg^2+ solution, 5 μL of a dNTP mixture and 0.5 μl of TaKaRa LA Taq (TAKARA SHUZO, catalogue No. RR002A) were mixed. After the resulting mixed solution was incubated at 94° C. for 5 minutes, the mixed solution was subjected to 30 cycles, in which one cycle consists of incubation at 94° C. for 1 minute, at 60° C. for 1 minute and then at 72° C. for 1 minute. The mixed solution was electrophoresed on a 2% agarose gel to recover about 0.5 kb of a DNA. The recovered DNA was treated with phenol/chloroform and then precipitated with ethanol to recover the DNA. The resulting DNA was dissolved in ultrapure water. To this solution were added 2.5 μl of NheI and 2.5 μl of HindIII, and then incubated at 37° C. for 3 hours. Then, the solution was electrophoresed on a 2% agarose gel to recover about 3.5 kb of a DNA. The recovered DNA was precipitated with ethanol to recover again the DNA (hereinafter, referred to as the collagen promoter DNA).
On the other hand, the vector pGL3 (Promega, catalogue No. E1751) having the nucleotide sequence encoding firefly luciferase was digested with NheI and HindIII, and then subjected to agarose gel electrophoresis as described above to recover about 5 kb of a DNA. The recovered DNA was precipitated with ethanol to recover the DNA again. To the recovered DNA were added 44 μl of distilled water, 5 μl of Buffer attached to Alkaline Phosphatase (TAKARA SHUZO, catalogue No. 2120A) and 1 μl of Alkaline Phosphatase (TAKARA SHUZO, catalogue No. 2120A). The mixed solution was incubated at 65° C. for 30 minutes. Then, the mixed solution was treated with phenol/chloroform twice, and precipitated with ethanol to recover the DNA (hereinafter referred to as the Luc vector DNA). Then, after about 20 ng of the collagen promoter DNA and about 20 ng of the Luc vector DNA were mixed, the same amount of a DNA Ligation kit Ver2 enzyme solution was added and this was incubated overnight at 16° C. To the mixed solution was added Escherichia coli 5Hdα (TOYOBO, catalogue No. DNA-903), this was allowed to stand in ice for 30 minutes, and then incubated at 42° C. for 45 seconds. […]

[2] = tested on: mRNA of Type I collagen gene in renal glomerulus; test: mRNA of Type I collagen gene in renal glomerulus of anti-Thy-1 antibody-administered rats (improvement of chronic renal failure); type: in vivo, rat; conditions: for ability to improve chronic renal failure: anti-Thy-1 antibody rats; for mRNA of collagen gene: Type I collagen amount/GAPDH amount, renal cortex, anti-Thy-1 antibody +
Experimental: IgG was purified from an ascites-lyophilized powder (CEDARLANE, lot No. 05122) containing an anti-rat CD90 (Thy1.1) monoclonal antibody using MAbTrap kit (Amersham Biosciences, catalogue No. 17-1128-01).
6 ml of a binding buffer was added to 3 ml of ascites to sufficiently recover it, and this was passed through a 0.22 μm filter. The resulting solution was applied to a pre-bufferized column, and the column was then washed with 10 ml of a binding buffer. Thereafter, the column was eluted with 5 ml of an elution buffer. From washing, each 1 ml was fractionated, and the protein concentration of each fraction was measured using bovine serum albumin as a standard. A single peak was confirmed from an elution pattern, and an IgG fraction was dialyzed against a physiological saline overnight at 4° C. The protein concentration of the resulting anti-Thy-1 antibody (IgG) was calculated.
The present compounds represented by the compound numbers (28a) (hereinafter, referred to as the present compound (28a)), the present compound represented by a compound number (30a) (hereinafter, referred to as the present compound (30a)), the present compound represented by a compound number (33a) (hereinafter, referred to as the present compound (33a)), the present compound represented by a compound number (10e) (hereinafter, referred to as the present compound (10e)), the present compound represented by a compound number (18e) (hereinafter referred to as the present compound (18e)), the present compound represented by a compound number (31e) (hereinafter, referred to as the present compound (31e)) and a corn oil which is a medium were weighed. These were mixed using a mortar and a pestle to prepare a […]. Using four 7-week old male Wistar rats [Nippon Charles River] per group, 60 μg/ml of the anti-Thy-1 antibody (IgG) or a physiological saline was intravenously injected via a tail vein at 5 ml/kg. […] A dose of the present compound was 15 mg/kg/day.
On the next day of final administration, a rat reared as described in the above (2) was slaughtered by collection of whole blood, and kidneys were isolated. A whole RNA was separated from the cortex of the isolated kidney using RNeasy Mini Kit (QIAGEN, catalogue No. 74106). To 5 μl (50 ng) of the separated whole RNA were added 1 μl of 20 μM oligo dT and 4 μl of RNase-free distilled water. After the mixture was incubated at 65° C. for 5 minutes, it was immediately ice-cooled. To 10 μl of the solution were added 4 μl of 5× buffer, 2.4 μl of MgCl2, 1 μl of 10 mM dNTP, 1 μl of RNasin, 1 μl of Improm II and 0.6 μl of RNase-free distilled water (all available from Promega), and a reverse transcription reaction was performed under the condition of at 25° C. for 5 minutes, at 42° C. for 1 hour, and at 70° C. for 15 minutes.
Into 5 μl of the reverse transcription reaction solution were mixed each 2 μl of each 1.25 pmol/μl of primers represented by SEQ ID NOS: 3 and 4, 1.25 μl of a probe (FAM-ctcgccttca tgcgcctgct agc-TAMRA) for detecting DNA of a Type I collagen gene represented by SEQ ID No:5, each 0.25 μl of Rodent GAPDH primers, 0.25 μl of a Rodent GAPDH probe, 12.5 μl of TaqMan Universal PCR Master Mix (all available from Applied Biosystem) and 1.5 μl of sterilized water in a well of Optical 96-Well Reaction Plate (Applied Biosystem, catalogue No. N801-0560). As a standard, in place of 5 μl of the reverse transcription reaction solution, each 5 μl of 500, 250, 125, 62.5, 31.25, 15.625 ng/μl rat renal cortex cDNA which had been prepared in advance was used. Thereafter, using Gene Amp 7900 (Applied Biosystem), PCR was performed under the condition of at 50° C. for 5 minutes, and 40 cycles in which one cycle is at 95° C. for 15 seconds and at 60° C. for 1 minute. […]

[3] = Example 5, 15 mg/kg/day orally for 7 days in corn oil
[4] = Table 4, 15 mg/kg/day orally for 7 days in corn oil, Wistar rats, control group 5.6, normal group 1.7, test results p < 0.01
[5] = Table 3, 15 mg/kg/day orally for 7 days in corn oil, Wistar rats, control group 3.4, normal group 1.9, test results p < 0.05

## N#CCOc1cccc(C=CC(=O)c2c(O)c3ccccc3[nH]c2=O)c1 [Compound No. (10e), 4-hydroxy-3-[3-[3-(cyanomethoxy)phenyl]-1-oxo-2-propenyl]-2(1H)-quinolinone]
[1]
  inhibition at 1 µM: ≥ 70%
[2]; [3]
  ability to improve chronic renal failure: have the ability to improve chronic renal failure
[2]; [4]
  mRNA of collagen gene: 2.0

## COCC(=O)Nc1cccc(C=CC(=O)c2c(O)c3ccccc3[nH]c2=O)c1 [Compound No. (18e), 4-hydroxy-3-[3-[3-(methoxyacetylamino)phenyl]-1-oxo-2-propenyl]-2(1H)-quinolinone]
[1]
  inhibition at 1 µM: ≥ 70%
[2]; [3]
  ability to improve chronic renal failure: have the ability to improve chronic renal failure
[2]; [4]
  mRNA of collagen gene: 1.9

## COC(=O)CNC(=O)c1cccc(C=CC(=O)c2c(O)cc(C)[nH]c2=O)c1 [Compound No. (28a), 4-hydroxy-3-[3-[3-[[(methoxycarbonylmethyl)amino]carbonyl]phenyl]-1-oxo-2-propenyl]-6-methyl-2(1H)-pyridinone]
[1]
  inhibition at 1 µM: ≥ 70%
[2]; [3]
  ability to improve chronic renal failure: have the ability to improve chronic renal failure
[2]; [5]
  mRNA of collagen gene: 2.0

## COCCNC(=O)c1ccc(C=CC(=O)c2c(O)c3ccccc3[nH]c2=O)cc1 [Compound No. (31e), 4-hydroxy-3-[3-[4-[(2-methoxyethyl)aminocarbonyl]phenyl]-1-oxo-2-propenyl]-2(1H)-quinolinone]
[1]
  inhibition at 1 µM: ≥ 70%
[2]; [3]
  ability to improve chronic renal failure: have the ability to improve chronic renal failure
[2]; [4]
  mRNA of collagen gene: 3.3

## COCCNC(=O)c1ccc(C=CC(=O)c2c(O)cc(C)[nH]c2=O)cc1 [Compound No. (33a), 4-hydroxy-3-[3-[4-[(2-methoxyethyl)aminocarbonyl]phenyl]-1-oxo-2-propenyl]-6-methyl-2(1H)-pyridinone]
[2]; [3]
  ability to improve chronic renal failure: have the ability to improve chronic renal failure
[2]; [5]
  mRNA of collagen gene: 2.4

## Cc1cc(O)c(C(=O)C=Cc2cccc(OCC(=O)O)c2)c(=O)n1C [Compound No. (37a), 4-hydroxy-3-[3-[3-(carboxymethoxy)phenyl]-1-oxo-2-propenyl]-1,6-dimethyl-2(1H)-pyridinone]
[2]; Example 6, orally for 7 days in 0.5% aqueous methylcellulose solution
  ability to improve chronic renal failure: has the ability to improve chronic renal failure
[2]; Table 5 (Example 6), orally for 7 days in 0.5% aqueous methylcellulose solution, 10 Wistar rats per group, control group 2.1, normal group 1.0, test results p < 0.01
  mRNA of collagen gene: 1.5
